Activity calls are given as the source filed them. The rule behind the calls is not given here.
What was measured:
Bile acid receptor = molecular target: T1, Bile acid receptor (Homo sapiens, UniProt Q96RI1); experiment: Agonist activity at GST-tagged human FXR-LBD (193 to 472 residues) using biotinylated SRC-1 peptide as substrate incubated for 1 hrs by HTRF assay
T1 sequence (Q96RI1 whole entry): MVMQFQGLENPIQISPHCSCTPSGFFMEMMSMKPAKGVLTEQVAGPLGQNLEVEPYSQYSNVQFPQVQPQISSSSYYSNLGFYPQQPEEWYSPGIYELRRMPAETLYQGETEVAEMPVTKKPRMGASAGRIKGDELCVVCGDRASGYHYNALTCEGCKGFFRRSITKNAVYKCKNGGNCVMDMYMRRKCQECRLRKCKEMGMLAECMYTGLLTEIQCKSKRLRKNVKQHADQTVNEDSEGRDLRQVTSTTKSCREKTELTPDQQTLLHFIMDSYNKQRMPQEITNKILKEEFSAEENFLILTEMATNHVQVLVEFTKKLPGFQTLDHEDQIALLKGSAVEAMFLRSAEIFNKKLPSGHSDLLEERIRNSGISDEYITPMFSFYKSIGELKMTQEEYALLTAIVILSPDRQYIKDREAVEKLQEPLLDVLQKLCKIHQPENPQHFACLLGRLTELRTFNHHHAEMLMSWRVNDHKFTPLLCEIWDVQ

[1] = Metabolic stability in rat liver microsomes assessed as hepatic extraction ratio; assay type: ADME, Microsome; conditions: read-out: ERH
[2] = Lipophilicity, logD of compound at pH 6.8; assay type: physicochemical; conditions: buffer
[3] = Oral bioavailability in Wistar rat at 10 mg/kg in presence of TRIS salt; assay type: ADME, organism-based; conditions: in vivo
[4] = AUC in Wistar rat at 3 mg/kg, po; assay type: ADME, organism-based; conditions: in vivo
[5] = Cmax in Wistar rat at 3 mg/kg, po; assay type: ADME, organism-based; parameters: dose 3 mg/kg, route oral; conditions: in vivo
[6] = Half life in Wistar rat at 100 mg/kg, po; assay type: ADME, organism-based; conditions: in vivo
[7] = Half life in Wistar rat at 300 mg/kg, po; assay type: ADME, organism-based; conditions: in vivo
[8] = Oral bioavailability in Wistar rat at 300 mg/kg; assay type: ADME, organism-based; conditions: in vivo
[9] = AUC in Wistar rat plasma at 10 mg/kg, po; assay type: ADME, organism-based
[10] = AUC in Wistar rat brain at 10 mg/kg, po; assay type: ADME, organism-based
[11] = molecular target: T2, G-protein coupled bile acid receptor 1 (Homo sapiens, UniProt Q8TDU6); experiment: Agonist activity at human GPBAR1 expressed in Jurkat cells assessed as increase in intracellular cAMP level incubated for 1 hr by fluorescence based assay; assay type: functional, cell-based
T2 sequence (Q8TDU6 whole entry): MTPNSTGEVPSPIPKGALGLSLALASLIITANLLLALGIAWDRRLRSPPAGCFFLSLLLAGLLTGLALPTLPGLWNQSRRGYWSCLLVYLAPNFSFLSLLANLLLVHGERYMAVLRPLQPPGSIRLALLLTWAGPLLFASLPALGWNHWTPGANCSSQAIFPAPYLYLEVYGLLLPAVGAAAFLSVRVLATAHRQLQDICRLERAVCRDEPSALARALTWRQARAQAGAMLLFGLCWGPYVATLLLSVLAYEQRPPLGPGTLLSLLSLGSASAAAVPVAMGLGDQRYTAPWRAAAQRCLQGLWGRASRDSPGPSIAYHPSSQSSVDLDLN

[12] = molecular target: T3, G-protein coupled bile acid receptor 1 (Homo sapiens) (UniProt Q8TDU6); experiment: Agonist activity at human GPBAR1 expressed in Jurkat cells assessed as increase in intracellular cAMP level incubated for 1 hr by fluorescence based assay relative to control; assay type: functional, cell-based
T3 sequence (whole entry): T2 sequence (Q8TDU6 whole entry)

[13] = molecular target: T4, Nuclear receptor subfamily 1 group I member 2 (Homo sapiens, UniProt O75469); experiment: Agonist activity at PXR (unknown origin) incubated for 2 hrs by TR-FRET assay
T4 sequence (O75469 whole entry): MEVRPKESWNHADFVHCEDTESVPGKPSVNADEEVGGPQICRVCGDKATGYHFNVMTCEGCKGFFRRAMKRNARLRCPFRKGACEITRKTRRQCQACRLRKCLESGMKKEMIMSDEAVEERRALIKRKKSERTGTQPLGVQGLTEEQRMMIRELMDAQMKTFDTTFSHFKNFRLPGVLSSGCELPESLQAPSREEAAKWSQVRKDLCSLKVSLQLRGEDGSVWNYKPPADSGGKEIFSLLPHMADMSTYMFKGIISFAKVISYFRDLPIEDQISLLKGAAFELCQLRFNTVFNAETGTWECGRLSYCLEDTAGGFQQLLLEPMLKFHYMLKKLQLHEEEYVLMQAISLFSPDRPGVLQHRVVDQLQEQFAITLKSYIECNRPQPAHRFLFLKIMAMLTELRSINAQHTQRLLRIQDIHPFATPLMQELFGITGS

Glucocorticoid receptor = molecular target: T5, Glucocorticoid receptor (Homo sapiens, UniProt P04150); experiment: Agonist activity at GAL4-fused Glucocorticoid receptor (unknown origin) expressed in HEK293T cells incubated for 24 by BrightGlo reagent based assay; assay type: cell-based
T5 sequence (P04150 whole entry): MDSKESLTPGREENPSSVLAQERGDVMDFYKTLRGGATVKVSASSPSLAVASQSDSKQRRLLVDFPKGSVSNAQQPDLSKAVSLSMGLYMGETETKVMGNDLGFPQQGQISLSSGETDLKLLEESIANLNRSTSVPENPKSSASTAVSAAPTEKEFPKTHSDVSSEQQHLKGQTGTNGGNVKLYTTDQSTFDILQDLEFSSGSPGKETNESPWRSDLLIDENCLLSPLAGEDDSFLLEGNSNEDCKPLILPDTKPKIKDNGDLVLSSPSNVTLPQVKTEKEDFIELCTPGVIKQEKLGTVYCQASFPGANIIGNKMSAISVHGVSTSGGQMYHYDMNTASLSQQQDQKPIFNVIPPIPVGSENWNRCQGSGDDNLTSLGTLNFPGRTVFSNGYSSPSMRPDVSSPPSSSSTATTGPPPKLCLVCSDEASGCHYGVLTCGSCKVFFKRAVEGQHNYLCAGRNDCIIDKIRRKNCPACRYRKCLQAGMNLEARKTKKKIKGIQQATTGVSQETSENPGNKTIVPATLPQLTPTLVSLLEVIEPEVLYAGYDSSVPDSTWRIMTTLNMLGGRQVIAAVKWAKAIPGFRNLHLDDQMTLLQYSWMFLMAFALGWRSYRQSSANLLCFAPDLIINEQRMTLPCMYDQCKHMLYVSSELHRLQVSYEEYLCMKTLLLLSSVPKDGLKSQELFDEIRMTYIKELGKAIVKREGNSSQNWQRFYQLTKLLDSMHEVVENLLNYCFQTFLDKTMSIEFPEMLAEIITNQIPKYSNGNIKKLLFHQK

Rattus norvegicus = experiment: In-vivo agonist activity at FXR in orally dosed Han Wistar rat assessed as upregulation of SHP mRNA level in ileum administered via oral gavage once daily for 14 days measured post last dose by qRT-PCR analysis; assay type: functional, organism-based
Mus musculus = species on record: Mus musculus; experiment: Anti Steato-hepatitic activity in C57BL/6J mouse STAM model assessed as change in Nr0b2 gene level in liver; assay type: functional, organism-based
[14] = Oral bioavailability in rabbit at 10 mg/kg; assay type: ADME, organism-based, Oryctolagus cuniculus; conditions: in vivo

- EC50 (Bile acid receptor): 0.007 µM
- hepatic extraction ratio [1]: < 0.18
- logD [2]: 2.7
- bioavailability [3]: 52%
- AUC [4]: 9.2 µM·h
- Cmax [5]: 4.5 µM
- half-life [6]: 5.6 h
- half-life [7]: 6.3 h
- bioavailability [8]: 72%
- AUC [9]: 24.5 µM·h
- AUC [10]: 1.11 µM·h
- EC50 [11]: > 80 µM
- Efficacy [12]: 13%
- EC50 [13]: > 30 µM
- EC50 (Glucocorticoid receptor): > 10 µM
- bioavailability [14]: 52%
Compound: Cn1nc(C(=O)N(Cc2ccccc2)Cc2ccc(C(=O)O)cc2)c2c1-c1cc(Cl)ccc1OC2 [NIDUFEXOR]
- Activity (Rattus norvegicus): Dose-dependent effect
- Activity (Mus musculus): Active
